The numbers were not newly measured in US20010014678A1, “Nicotine addiction treatment” (CARY MEDICAL CORPORATION, priority 1997, published 2001), which cites them from elsewhere.

With `CN1CCCC1c1cccnc1` (centres unmarked) [nicotine], the metabolic half-life result (in vivo) was “roughly 2 hours”. Besides, the “nicotine in venous blood” value (provided by one cigarette) is 5 to 30 ng/mL.
